The values below come from patent publication US20140105948A1, “STABILITY OF PEROXIDE IN ORAL CARE COMPOSTIONS” (INTERCONTINENTAL GREAT BRANDS LLC, priority 2011, published 2014).

Data set [1] in a line: Stability of carbamide peroxide stored with sweeteners. It counts as physicochemical. The settings on record: for tendency of sweetener to react with the peroxide: result in words; for % Carbamide Peroxide recovered after 4 weeks of aging with sweetener at 25 C.: carbamide peroxide stored with sweetener, four weeks. The protocol:
The present inventors have compared the action of certain sweeteners on the effect with carbamide peroxide, with surprising results. Carbamide peroxide was stored with three sweeteners, and stored for four weeks at 25° C. to determine stability. The three sweeteners included aspartame, acesulfame potassium and sucralose. The percentage of carbamide peroxide recovered after four weeks was measured.

The nature of data set [2]: Shelf life stability of encapsulated carbamide peroxide in chewing gum (Example 1). Type of data set: physicochemical. The settings on record: without encapsulation, after two weeks of storage. The method, then: The stability of various encapsulants for carbamide peroxide in chewing gum was measured. As explained above, peroxides in general are known to be problematic in the shelf life of chewing gums, as they have a tendency to break down gum base, rendering it ineffective and useless. Chewing gums including various encapsulated carbamide peroxides were prepared and were stored for eight weeks at room temperature and at 37° C. Solid carbamide peroxide was encapsulated in the following encapsulating materials: (1) ethyl cellulose (25% encapsulant weight); (2) polyvinyl acetate B30 (30% encapsulant weight); (3) gum arabic (30% encapsulant weight); (4) mannitol (30% encapsulant weight); and (5) shellac (30% encapsulant weight). These encapsulated particles were used in formulating pieces of chewing gum and were measured for shelf life stability. In addition, a control chewing gum was prepared, which included non-encapsulated (“free”) carbamide peroxide within the gum base. The amount of carbamide peroxide obtained after the study was measured. […] At room temperature after eight weeks, chewing gums including this encapsulated carbamide peroxide had approximately 95% of the carbamide peroxide remaining. Even after eight weeks at elevated temperatures, these products had approximately 80% of the carbamide peroxide remaining.

Counter-ions that a name gives are not always drawn. Residues, ends and D or L forms follow the SMILES beside them.

`OCC(O)CO` [glycerin]: the “tendency of sweetener to react with the peroxide” value (“tendency of sweetener to react” below) in data set [1] is reported as “have a tendency to react with the peroxide”.

As to `OC[C@H]1O[C@H](O[C@]2(CCl)O[C@H](CCl)[C@@H](O)[C@@H]2O)[C@H](O)[C@@H](O)[C@H]1Cl` [Sucralose], in data set [1], the “% Carbamide Peroxide recovered after 4 weeks of aging with sweetener at 25 C.” value (“% Carbamide Peroxide recovered” below) came to 100% and the “tendency of sweetener to react” value is given as “do not react with the peroxide”.

In the case of isomalt, the “tendency of sweetener to react” value in data set [1] is recorded as “do not react with the peroxide”.

Consider `COC(=O)[C@H](Cc1ccccc1)NC(=O)[C@@H](N)CC(=O)O` [Aspartame, L-aspartyl-L-phenylalanine methyl ester] (H-Asp-Phe-OMe), for which the “% Carbamide Peroxide recovered” value in data set [1] is given as 78%; in data set [1] (listed as aspartame), “significant reduction”. Moreover, the “tendency of sweetener to react” value in data set [1] is “have a tendency to react with the peroxide”.

`NC(N)=O.OO` [carbamide peroxide]: in data set [2], the “carbamide peroxide decomposed in chewing gum product” value is recorded as “nearly all of the carbamide peroxide is decomposed”.

Consider `CC1=CC(=O)NS(=O)(=O)O1` [Ace-K, potassium salt of 3,4-dihydro-6-methyl-1,2,3-oxathiazine-4-one-2,2-dioxide], for which the “% Carbamide Peroxide recovered” value in data set [1] was found to be 92%.

Consider `OC[C@@H](O)[C@@H](O[C@H]1O[C@H](CO)[C@@H](O)[C@H](O)[C@H]1O)[C@H](O)[C@@H](O)CO` [maltitol], for which the “tendency of sweetener to react” value in data set [1] is listed as “do not react with the peroxide”.
